This test deals with interaction of human SOS1 (SOS1) with human K-RasG12C (Homo sapiens (Human), UniProt Q07889). In words: Biochemical assay: hK-RasG12C interaction assay with hSOS1 (HTRF). Conditions: GST-hK-RasG12C with His-hSOS1, 60 min incubation at 20° C., mean, read-out: K-RasG12C - SOS interaction assay IC50 (mean). The format is binding. An outline of the steps: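 Compounds, duplicates at 11 concentrations from 0.073 nM to 20 µM, were preincubated 2 min with 10 nM GST-hK-RasG12C, then 20 nM His-hSOS1 was added, all at 20 °C. After 60 min, 665/620 nm HTRF ratio normalized to DMSO and SOS1-free controls; IC50 by 4-parameter fit.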
interaction of human SOS1 (SOS1) with human K-RasG12C, sequence (Q07889 564-1049 limits assumed): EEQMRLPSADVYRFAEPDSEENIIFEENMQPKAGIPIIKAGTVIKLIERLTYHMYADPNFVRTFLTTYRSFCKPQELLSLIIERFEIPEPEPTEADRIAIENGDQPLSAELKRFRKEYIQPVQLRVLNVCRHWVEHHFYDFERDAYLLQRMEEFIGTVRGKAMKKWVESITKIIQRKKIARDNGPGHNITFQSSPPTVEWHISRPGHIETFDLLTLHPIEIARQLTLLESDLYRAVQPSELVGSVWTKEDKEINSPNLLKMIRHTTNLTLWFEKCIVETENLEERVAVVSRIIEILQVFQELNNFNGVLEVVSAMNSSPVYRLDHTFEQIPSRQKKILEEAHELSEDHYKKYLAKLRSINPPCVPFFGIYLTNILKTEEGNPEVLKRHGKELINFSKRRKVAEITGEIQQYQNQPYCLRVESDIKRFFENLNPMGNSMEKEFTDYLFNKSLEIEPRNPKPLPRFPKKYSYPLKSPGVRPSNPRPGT
A general note: TR-FRET usually uses a lanthanide donor and a delayed reading to cut background.

pIC50: −log10 of the molar value.

By pIC50 is commonly meant the negative decadic logarithm of the IC50, by convention in mol/L. For the compound `Cc1nc(N[C@H](C)c2cccc(C(F)(F)F)c2C)c2cc(P3(=O)CCN(C(C)C)CC3)ncc2n1` [Example 53, 4-[2-methyl-4-({(1R)-1-[2-methyl-3-(trifluoromethyl)phenyl]ethyl}amino)pyrido[3,4-d]pyrimidin-6-yl]-1-(propan-2-yl)-1,4lambda^5-azaphosphinan-4-one], the pIC50 is 7.18.

For `Cc1nc(N[C@H](C)c2cccc(C(F)(F)C(C)(C)O)c2F)c2cc(P3(=O)CCN(Cc4ccccc4)CC3)ncc2n1` [Example 54, 1-benzyl-4-[4-({(1R)-1-[3-(1,1-difluoro-2-hydroxy-2-methylpropyl)-2-fluorophenyl]ethyl}amino)-2-methylpyrido[3,4-d]pyrimidin-6-yl]-1,4lambda^5-azaphosphinan-4-one], the pIC50 is 7.65.

As to `Cc1nc(N[C@H](C)c2cccc(C(F)(F)F)c2F)c2cc(P(C)(C)=O)ncc2n1` [Example 55, 6-(dimethylphosphoryl)-N-{(1R)-1-[2-fluoro-3-(trifluoromethyl)phenyl]ethyl}-2-methylpyrido[3,4-d]pyrimidin-4-amine], the pIC50 was 7.58.

`Cc1nc(N[C@H](C)c2cccc(Br)c2F)c2cc(P(C)(C)=O)ncc2n1` [Example 56, N-[(1R)-1-(3-bromo-2-fluorophenyl)ethyl]-6-(dimethylphosphoryl)-2-methylpyrido[3,4-d]pyrimidin-4-amine]: the pIC50 is 7.13.

`CC(=O)N1CCP(=O)(c2cc3c(N[C@H](C)c4cccc(C(F)F)c4)nc(C)nc3cn2)CC1` [Example 57, 1-acetyl-4-[4-{{(1R)-1-[3-(difluoromethyl)phenyl]ethyl}amino)-2-methylpyrido[3,4-d]pyrimidin-6-yl]-1,4lambda^5-azaphosphinan-4-one]: the pIC50 is 7.71.

With `CC(=O)N1CCP(=O)(c2cc3c(N[C@H](C)c4cc(C)cc(C(F)(F)F)c4C)nc(C)nc3cn2)CC1` [Example 58, 1-acetyl-4-[4-{{(1R)-1-[2,5-dimethyl-3-(trifluoromethyl)phenyl]ethyl}amino)-2-methylpyrido[3,4-d]pyrimidin-6-yl]-1,4lambda^5-azaphosphinan-4-one], the pIC50 was 8.20.

As for `Cc1nc(N[C@H](C)c2cccc(C(F)(F)CO)c2F)c2cc(P3(=O)CC=CC3)ncc2n1` [Example 59, 1-[4-{{(1R)-1-[3-(1,1-difluoro-2-hydroxyethyl)-2-fluorophenyl]ethyl}amino)-2-methylpyrido[3,4-d]pyrimidin-6-yl]-2,5-dihydro-1H-1lambda^5-phosphol-1-one], the pIC50 is 8.15.

For `[2H]C([2H])(O)C(F)(F)c1cccc([C@@H](C)Nc2nc(C)nc3cnc(P(C)(C)=O)cc23)c1F` [Example 60, 2-{3-[(1R)-1-{[6-(dimethylphosphoryl)-2-methylpyrido[3,4-d]pyrimidin-4-yl]amino}ethyl]-2-fluorophenyl}-2,2-difluoro(^2H2)ethan-1-ol], the negative-log IC50 (pIC50) was 7.87.

Take `[2H]C([2H])(O)C(F)(F)c1cccc([C@@H](C)Nc2nc(C)nc3cnc(P4(=O)CCCC4)cc23)c1F` [Example 61, 1-(4-{[(1R)-1-{3-[1,1-difluoro-2-hydroxy(^2H2)ethyl]-2-fluorophenyl}ethyl]amino}-2-methylpyrido[3,4-d]pyrimidin-6-yl)-1lambda^5-phospholan-1-one]: the pIC50 was 8.01.

Regarding `Cc1nc(N[C@H](C)c2cccc(C(F)(F)CO)c2F)c2cc(P(C)(C)=O)ncc2n1` [Example 62, 2-{3-[(1R)-1-{[6-(dimethylphosphoryl)-2-methylpyrido[3,4-d]pyrimidin-4-yl]amino}ethyl]-2-fluorophenyl}-2,2-difluoroethan-1-ol], the pIC50 was 7.87.

Take `Cc1nc(N[C@H](C)c2cccc(C(F)(F)CO)c2F)c2cc(P3(=O)CCCC3)ncc2n1` [Example 63, 1-[4-{{(1R)-1-[3-(1,1-difluoro-2-hydroxyethyl)-2-fluorophenyl]ethyl}amino)-2-methylpyrido[3,4-d]pyrimidin-6-yl]-1lambda^5-phospholan-1-one]: the pIC50 was 8.00.

Turning to `CCP(=O)(CC)c1cc2c(N[C@H](C)c3cccc(C(F)(F)CO)c3F)nc(C)nc2cn1` [Example 64, 2-{3-[(1R)-1-{[6-(diethylphosphoryl)-2-methylpyrido[3,4-d]pyrimidin-4-yl]amino}ethyl]-2-fluorophenyl}-2,2-difluoroethan-1-ol], the pIC50 was 7.75.

As to `CCP(C)(=O)c1cc2c(N[C@H](C)c3cccc(C(F)(F)C(C)(C)O)c3F)nc(C)nc2cn1` (stereo partly drawn) [Example 67, 1-{3-[(1R)-1-{{6-[ethyl(methyl)phosphoryl]-2-methylpyrido[3,4-d]pyrimidin-4-yl}amino)ethyl]-2-fluorophenyl}-1,1-difluoro-2-methylpropan-2-ol], the pIC50 was 7.17.

As to `Cc1nc(N[C@H](C)c2cccc(C(F)(F)C(C)(C)O)c2F)c2cc(P(C)(=O)C(C)C)ncc2n1` (stereo partly drawn) [Example 70, 1,1-difluoro-1-{2-fluoro-3-[(1R)-1-({2-methyl-6-[methyl(propan-2-yl)phosphoryl]pyrido[3,4-d]pyrimidin-4-yl}amino)ethyl]phenyl}-2-methylpropan-2-ol], the pIC50 is 7.56.

Take `Cc1nc(N[C@H](C)c2cccc(C(F)(F)C(C)(C)O)c2F)c2cc(P3(=O)CC=CC3)ncc2n1` [Example 85, 1-[4-({(1R)-1-[3-(1,1-difluoro-2-hydroxy-2-methylpropyl)-2-fluorophenyl]ethyl}amino)-2-methylpyrido[3,4-d]pyrimidin-6-yl]-2,5-dihydro-1H-1lambda^5-phosphol-1-one]: the pIC50 is 7.92.

Turning to `Cc1nc(N[C@H](C)c2cccc(C(F)(F)F)c2C)c2cc(P3(=O)CCN(C(=O)OC(C)(C)C)CC3)nc(C)c2n1` [Example 91, tert-butyl 4-[2,8-dimethyl-4-({(1R)-1-[2-methyl-3-(trifluoromethyl)phenyl]ethyl}amino)pyrido[3,4-d]pyrimidin-6-yl]-4-oxo-1,4lambda^5-azaphosphinane-1-carboxylate], the pIC50 is 6.54.

For the compound `CCP(=O)(CC)c1cc2c(N[C@H](C)c3cccc(C(F)F)c3F)nc(C)nc2cn1` [Example 92, 6-(diethylphosphoryl)-N-{(1R)-1-[3-(difluoromethyl)-2-fluorophenyl]ethyl}-2-methylpyrido[3,4-d]pyrimidin-4-amine], the pIC50 was 7.11.

With `COCC(F)(F)c1cccc([C@@H](C)Nc2nc(C)nc3cnc(P4(=O)CCCC4)cc23)c1F` [Example 93, 1-[4-{{(1R)-1-[3-(1,1-difluoro-2-methoxyethyl)-2-fluorophenyl]ethyl}amino)-2-methylpyrido[3,4-d]pyrimidin-6-yl]-1lambda^5-phospholan-1-one], the pIC50 is 7.43.

As to `COCC(F)(F)c1cccc([C@@H](C)Nc2nc(C)nc3cnc(P(C)(C)=O)cc23)c1F` [Example 94, N-{(1R)-1-[3-(1,1-difluoro-2-methoxyethyl)-2-fluorophenyl]ethyl}-6-(dimethylphosphoryl)-2-methylpyrido[3,4-d]pyrimidin-4-amine], the pIC50 is 7.33.

On to `Cc1nc(N[C@H](C)c2cc(N)cc(C(F)(F)F)c2)c2cc(P3(=O)CCCC3)ncc2n1` [Example 95, 1-[4-{{(1R)-1-[3-amino-5-(trifluoromethyl)phenyl]ethyl}amino)-2-methylpyrido[3,4-d]pyrimidin-6-yl]-1lambda^5-phospholan-1-one], for which the pIC50 was 7.62.

Source of the values: US20240247015A1, “PHOSPHORUS DERIVATIVES AS NOVEL SOS1 INHIBITORS” (BAYER AKTIENGESELLSCHAFT, priority 2021, published 2024).
